Measured values published in PubChem BioAssay (NCI).
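How tested: cells in 96-well plates exposed to compound for 48 hours at five concentrations. GI50 is the concentration that inhibits growth by half. Definition used: TGI = concentration required for complete inhibition of growth.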

Key:
Assay in all cases: inhibition of tumour cell growth, NCI panel, 48 h
NCI-H522 lung = system: NCI-H522 lung
MCF7 breast = system: MCF7 breast
SNB-19 CNS = system: SNB-19 CNS
SK-OV-3 ovarian = system: SK-OV-3 ovarian
COLO 205 colon = system: COLO 205 colon
HOP-92 NSCLC = system: HOP-92 NSCLC
NCI/ADR-RES ovarian = system: NCI/ADR-RES ovarian
CCRF-CEM leukemia = system: CCRF-CEM leukemia
RPMI-8226 leukemia = system: RPMI-8226 leukemia
TK-10 renal = system: TK-10 renal
T-47D breast = system: T-47D breast
MDA-MB-435 = system: MDA-MB-435
UACC-257 melanoma = system: UACC-257 melanoma
A549 NSCLC = system: A549 NSCLC
PC-3 prostate = system: PC-3 prostate
SN12C renal = system: SN12C renal
HT29 colon = system: HT29 colon
SF-539 CNS = system: SF-539 CNS
BT-549 breast = system: BT-549 breast
786-0 renal = system: 786-0 renal
MOLT-4 leukemia = system: MOLT-4 leukemia
SNB-75 CNS = system: SNB-75 CNS
ACHN renal = system: ACHN renal
SK-MEL-2 melanoma = system: SK-MEL-2 melanoma
CAKI-1 renal = system: CAKI-1 renal
DU-145 prostate = system: DU-145 prostate
NCI-H460 lung = system: NCI-H460 lung
SK-MEL-28 melanoma = system: SK-MEL-28 melanoma
OVCAR-4 ovarian = system: OVCAR-4 ovarian
MDA-MB-231 breast = system: MDA-MB-231 breast
EKVX NSCLC = system: EKVX NSCLC
MDA-MB-468 breast = system: MDA-MB-468 breast
SF-295 CNS = system: SF-295 CNS
M14 melanoma = system: M14 melanoma
U251 CNS = system: U251 CNS
HCT-116 colon = system: HCT-116 colon
MALME-3M melanoma = system: MALME-3M melanoma
SK-MEL-5 melanoma = system: SK-MEL-5 melanoma
IGROV1 ovarian = system: IGROV1 ovarian
HCT-15 colon = system: HCT-15 colon
KM12 colon = system: KM12 colon
A498 renal = system: A498 renal
K-562 leukemia = system: K-562 leukemia
SW-620 colon = system: SW-620 colon
OVCAR-3 ovarian = system: OVCAR-3 ovarian
NCI-H23 lung = system: NCI-H23 lung
OVCAR-5 ovarian = system: OVCAR-5 ovarian
HOP-62 NSCLC = system: HOP-62 NSCLC
HS 578T breast = system: HS 578T breast
OVCAR-8 ovarian = system: OVCAR-8 ovarian
SF-268 CNS = system: SF-268 CNS
HL-60(TB) leukemia = system: HL-60(TB) leukemia
UO-31 renal = system: UO-31 renal
NCI-H226 lung = system: NCI-H226 lung
RXF 393 renal = system: RXF 393 renal
HCC-2998 colon = system: HCC-2998 colon
UACC-62 melanoma = system: UACC-62 melanoma
SR leukemia = system: SR leukemia
LOX IMVI melanoma = system: LOX IMVI melanoma

Cc1noc2c(Cc3ccccc3)nn(CC(=O)N/N=C/c3ccc(F)cc3)c(=O)c12
GI50 (NCI-H522 lung): 19.1 µM | TGI (NCI-H522 lung): 73.6 µM | GI50 (MCF7 breast): 66.5 µM | TGI (MCF7 breast): > 100 µM | GI50 (SNB-19 CNS): 6.74 µM | TGI (SNB-19 CNS): 24.2 µM | GI50 (SK-OV-3 ovarian): 4.4 µM | TGI (SK-OV-3 ovarian): 16 µM | GI50 (COLO 205 colon): > 100 µM | TGI (COLO 205 colon): > 100 µM | GI50 (HOP-92 NSCLC): 9.56 µM | TGI (HOP-92 NSCLC): 27.8 µM | GI50 (NCI/ADR-RES ovarian): 21.3 µM | TGI (NCI/ADR-RES ovarian): > 100 µM | GI50 (CCRF-CEM leukemia): > 100 µM | TGI (CCRF-CEM leukemia): > 100 µM | GI50 (RPMI-8226 leukemia): > 100 µM | TGI (RPMI-8226 leukemia): > 100 µM | GI50 (TK-10 renal): 13.6 µM | TGI (TK-10 renal): 36.9 µM | GI50 (T-47D breast): 5.62 µM | TGI (T-47D breast): > 100 µM | GI50 (MDA-MB-435): > 100 µM | TGI (MDA-MB-435): > 100 µM | GI50 (UACC-257 melanoma): 78.1 µM | TGI (UACC-257 melanoma): > 100 µM | GI50 (A549 NSCLC): 46.2 µM | TGI (A549 NSCLC): > 100 µM | GI50 (PC-3 prostate): 66.1 µM | TGI (PC-3 prostate): > 100 µM | GI50 (SN12C renal): > 100 µM | TGI (SN12C renal): > 100 µM | GI50 (HT29 colon): > 100 µM | TGI (HT29 colon): > 100 µM | GI50 (SF-539 CNS): 16.7 µM | TGI (SF-539 CNS): 37.3 µM | GI50 (BT-549 breast): 14.5 µM | TGI (BT-549 breast): 37.8 µM | GI50 (786-0 renal): 3.13 µM | TGI (786-0 renal): 12.4 µM | GI50 (MOLT-4 leukemia): > 100 µM | TGI (MOLT-4 leukemia): > 100 µM | GI50 (SNB-75 CNS): 8.25 µM | TGI (SNB-75 CNS): 32.2 µM | GI50 (ACHN renal): 4.88 µM | TGI (ACHN renal): 24.1 µM | GI50 (SK-MEL-2 melanoma): 16.3 µM | TGI (SK-MEL-2 melanoma): 33.3 µM | GI50 (CAKI-1 renal): 6.13 µM | TGI (CAKI-1 renal): 32.1 µM | GI50 (DU-145 prostate): > 100 µM | TGI (DU-145 prostate): > 100 µM | GI50 (NCI-H460 lung): 9.78 µM | TGI (NCI-H460 lung): > 100 µM | GI50 (SK-MEL-28 melanoma): > 100 µM | TGI (SK-MEL-28 melanoma): > 100 µM | GI50 (OVCAR-4 ovarian): 3.95 µM | TGI (OVCAR-4 ovarian): > 100 µM | GI50 (MDA-MB-231 breast): 4.92 µM | TGI (MDA-MB-231 breast): 21.8 µM | GI50 (EKVX NSCLC): > 100 µM | TGI (EKVX NSCLC): > 100 µM | GI50 (MDA-MB-468 breast): 16.1 µM | TGI (MDA-MB-468 breast): 57.8 µM | GI50 (SF-295 CNS): 3.33 µM | TGI (SF-295 CNS): 17.3 µM | GI50 (M14 melanoma): 26.1 µM | TGI (M14 melanoma): > 100 µM | GI50 (U251 CNS): 18.3 µM | TGI (U251 CNS): > 100 µM | GI50 (HCT-116 colon): 5.08 µM | TGI (HCT-116 colon): 77.3 µM | GI50 (MALME-3M melanoma): 8.99 µM | TGI (MALME-3M melanoma): 38.5 µM | GI50 (SK-MEL-5 melanoma): 33.2 µM | TGI (SK-MEL-5 melanoma): > 100 µM | GI50 (IGROV1 ovarian): 22.5 µM | TGI (IGROV1 ovarian): 54.2 µM | GI50 (HCT-15 colon): > 100 µM | TGI (HCT-15 colon): > 100 µM | GI50 (KM12 colon): > 100 µM | TGI (KM12 colon): > 100 µM | GI50 (A498 renal): 11 µM | TGI (A498 renal): 33.7 µM | GI50 (K-562 leukemia): 84.4 µM | TGI (K-562 leukemia): > 100 µM | GI50 (SW-620 colon): > 100 µM | TGI (SW-620 colon): > 100 µM | GI50 (OVCAR-3 ovarian): 87.1 µM | TGI (OVCAR-3 ovarian): > 100 µM | GI50 (NCI-H23 lung): 17 µM | TGI (NCI-H23 lung): 41.7 µM | GI50 (OVCAR-5 ovarian): > 100 µM | TGI (OVCAR-5 ovarian): > 100 µM | GI50 (HOP-62 NSCLC): 5.29 µM | TGI (HOP-62 NSCLC): 21 µM | GI50 (HS 578T breast): 4.65 µM | TGI (HS 578T breast): 46.7 µM | GI50 (OVCAR-8 ovarian): 27.9 µM | TGI (OVCAR-8 ovarian): > 100 µM | GI50 (SF-268 CNS): 24.6 µM | TGI (SF-268 CNS): > 100 µM | GI50 (HL-60(TB) leukemia): > 100 µM | TGI (HL-60(TB) leukemia): > 100 µM | GI50 (UO-31 renal): 18 µM | TGI (UO-31 renal): > 100 µM | GI50 (NCI-H226 lung): 4.12 µM | TGI (NCI-H226 lung): 29.3 µM | GI50 (RXF 393 renal): 5.4 µM | TGI (RXF 393 renal): 21.2 µM | GI50 (HCC-2998 colon): > 100 µM | TGI (HCC-2998 colon): > 100 µM | GI50 (UACC-62 melanoma): 20.9 µM | TGI (UACC-62 melanoma): 66.8 µM | GI50 (SR leukemia): > 100 µM | TGI (SR leukemia): > 100 µM | GI50 (LOX IMVI melanoma): 33 µM | TGI (LOX IMVI melanoma): > 100 µM
